In one assay the test system is SF-268. The experiment in a line: Tested for growth inhibition activity against CNS SF-268 human cancer cell. In kind it is functional.
The subject of a further assay is NCI-H460. Put plainly: Tested for growth inhibition activity against lung NCI-H460 human cancer cell. In kind it is functional.
Another assay concerns MCF7. The experiment in a line: Tested for growth inhibition activity against breast MCF-7 human cancer cell. In kind it is functional.
A further assay deals with BXPC-3. Put plainly: Tested for growth inhibition activity against pancreas BXPC-3 human cancer cell. In kind it is functional.
In another assay the test system is P388. The experiment in a line: Tested for growth inhibition activity against murine P388 lymphocytic leukemia. The format is functional, Mus musculus.
The next assay has as its system KM-20L2. Put plainly: Tested for growth inhibition activity against colon KM20L2 human cancer cell. The format is functional.
Another assay deals with DU-145. The experiment in a line: Tested for growth inhibition activity against prostate DU-145 human cancer cell. The format is functional.

Each structure is given as a SMILES string. Bounds are passed on as bounds.

The values below come from ChEMBL document CHEMBL1146765, “Synthesis and biological activity of some structural modifications of pancratistatin” (2004).

As to `O=C1N[C@H]2[C@H](O)[C@H](O)CC[C@@H]2c2cc3c(cc21)OCO3`, the Growth-inhibitory concentration in the assay on SF-268 was above 10 µg/mL; with NCI-H460, above 10 µg/mL; in the assay with MCF7 it was above 10 µg/mL; in the assay with BXPC-3 it was above 10 µg/mL; with P388, 1.39 µg/mL; in the assay with DU-145, above 10 µg/mL. In addition, the Growth inhibitory concentration with KM-20L2 was above 10 µg/mL.

With `COC(=O)N[C@H]1[C@H](OC(C)=O)[C@H](OC(C)=O)[C@@H](OC(C)=O)[C@H](OC(C)=O)[C@@H]1c1cccc(OC)c1`, the Growth-inhibitory concentration in the assay with SF-268 is above 10 µg/mL; in the assay on NCI-H460, above 10 µg/mL; in the assay with MCF7 it was above 10 µg/mL; in the assay with BXPC-3 it was above 10 µg/mL; with P388 it was 19.3 µg/mL; in the assay with DU-145 it was above 10 µg/mL. This compound also registered a Growth inhibitory concentration in the assay with KM-20L2 above 10 µg/mL.

`O=C1N[C@H]2[C@H](O)[C@H](O)[C@@H](O)[C@H](O)[C@@H]2c2cc3c(c(O)c21)OCO3` [PANCRATISTATIN]: the Growth-inhibitory concentration in the assay with SF-268 stood at 0.017 µg/mL; in the assay with NCI-H460, 0.048 µg/mL; in the assay with MCF7 it was 0.032 µg/mL; with BXPC-3, 0.028 µg/mL; with P388, 0.039 µg/mL; in the assay with DU-145, 0.016 µg/mL. In addition, the Growth inhibitory concentration with KM-20L2 was found to be 0.062 µg/mL.

Regarding `COc1ccc2c(c1)[C@H]1[C@@H](O)[C@H](O)[C@@H](O)[C@@H](O)[C@@H]1NC2=O`, the Growth-inhibitory concentration was determined as 3.3 µg/mL in the assay on SF-268; 2.8 µg/mL in the assay with NCI-H460; 4.4 µg/mL with MCF7; 4.9 µg/mL in the assay with BXPC-3; 4.3 µg/mL with P388; 2.6 µg/mL in the assay with DU-145. This compound showed a Growth inhibitory concentration in the assay on KM-20L2 of 3.6 µg/mL.

Consider `COc1ccc2c(c1)[C@@H]1[C@@H](NC2=O)[C@H](OC(C)=O)[C@H](OC(C)=O)[C@@H](OC(C)=O)[C@@H]1OC(C)=O`, for which the Growth-inhibitory concentration in the assay on SF-268 was above 10 µg/mL; in the assay with NCI-H460, above 10 µg/mL; with MCF7 it was 4.6 µg/mL; in the assay on BXPC-3, above 10 µg/mL; with P388, 2.1 µg/mL; in the assay on DU-145, 6.7 µg/mL. This compound also had a Growth inhibitory concentration in the assay on KM-20L2 above 10 µg/mL.

Consider `CC(=O)O[C@H]1[C@@H]2NC(=O)c3cc4c(cc3[C@H]2CC[C@H]1OC(C)=O)OCO4`, for which the Growth-inhibitory concentration is above 10 µg/mL in the assay with SF-268; above 10 µg/mL in the assay on NCI-H460; above 10 µg/mL with MCF7; above 10 µg/mL with BXPC-3; 1.1 µg/mL in the assay on P388; above 10 µg/mL in the assay with DU-145. Moreover, in the assay with KM-20L2, the Growth inhibitory concentration is above 10 µg/mL.

Take `O=C1N[C@@H]2C(=C[C@H](O)[C@@H](O)[C@H]2O)c2cc3c(c(O)c21)OCO3` [NARCICLASINE]: the Growth-inhibitory concentration worked out at 0.021 µg/mL with SF-268; 0.032 µg/mL with NCI-H460; 0.019 µg/mL in the assay on MCF7; 0.026 µg/mL with BXPC-3; 0.0012 µg/mL with P388; 0.011 µg/mL in the assay on DU-145. In the assay on KM-20L2, the Growth inhibitory concentration is 0.021 µg/mL.

`O=C1N[C@H]2[C@H](O)[C@H](O)[C@@H](O)[C@H](O)[C@@H]2c2cc3c(cc21)OCO3`: the results for the Growth-inhibitory concentration in the assay on NCI-H460 and in the assay with P388 were 0.29 µg/mL and 0.44 µg/mL, respectively. The compound further came in with a Growth inhibitory concentration in the assay with KM-20L2 of 0.22 µg/mL.
